This note sets out measurements from patent US20050080113A1, “Medicinal compositions” (priority 2001, published 2005).

The melting point is the temperature, or range, at which the solid turns liquid. In the case of `CCc1nc(-c2cccc(C)c2)c(-c2ccnc(NC(=O)C3CCCC3)c2)s1` [H 29-1, N-[4 [2 ethyl-4 (3-methylphenyl)-1,3 thiazol-5 yl]-2-pyridyl]cyclopentanecarboxamide], the melting point was 123 to 125 °C.

As for `CC(=O)Nc1cc(-c2sc(C)nc2-c2cccc(Cl)c2)ccn1` [H 30-1, N-[4-[4-(3-chlorophenyl)-2-methyl-1,3-thiazol-5-yl]-2-pyridyl]acetamide], the melting point was in the range of 112 to 115 °C. Under `CCCc1nc(-c2cccc(Cl)c2)c(-c2ccnc(NC(C)=O)c2)s1` [H 30-3, N-[4-[4-(3-chlorophenyl)-2-propyl-1,3-thiazol-5-yl]-2-pyridyl]acetamide] stands 144 to 145 °C; under `CCc1nc(-c2cccs2)c(-c2ccnc(NC(C)=O)c2)s1` [H 30-4, N-[4 [2 ethyl-4 (2-thienyl)-1,3 thiazol-5 yl]-2 pyridyl]acetamide], 154 to 155 °C. The same measure for `CSc1ccc(-c2nc(-c3cccc(Cl)c3)c(-c3ccnc(NC(C)=O)c3)s2)cc1` [H 30-5, N-[4 [4 (3 chlorophenyl)-2 [4 (methylthio)phenyl]-1,3 thiazol-5 yl]-2-pyridyl]acetamide]: 207 to 208 °C; for `CCC(=O)Nc1cc(-c2sc(C)nc2-c2cccc(Cl)c2)ccn1` [H 30-7, N-[4-[4-(3-chlorophenyl)-2-methyl-1,3-thiazol-5-yl]-2-pyridyl]propionamide]: 134 to 135 °C; for `CCC(=O)Nc1cc(-c2sc(CC)nc2-c2cccc(Cl)c2)ccn1` [H 30-8, N-[4-[4-(3-chlorophenyl)-2-ethyl-1,3-thiazol-5-yl]-2-pyridyl]propionamide]: 132 to 133 °C. `CCCc1nc(-c2cccc(Cl)c2)c(-c2ccnc(NC(=O)CC)c2)s1` [H 30-9, N-[4-[4-(3-chlorophenyl)-2-propyl-1,3-thiazol-5-yl]-2-pyridyl]propionamide] came in with a melting point of 103 to 104 °C. The same measure for `CCC(=O)Nc1cc(-c2sc(CC)nc2-c2cccs2)ccn1` [H 30-10, N-[4 [2 ethyl-4 (2-thienyl)-1,3 thiazol-5 yl]-2 pyridyl]propionamide]: 187 to 188 °C; for `CCC(=O)Nc1cc(-c2sc(-c3ccc(SC)cc3)nc2-c2cccc(Cl)c2)ccn1` [H 30-11, N-[4 [4 (3 chlorophenyl)-2 [4 (methylthio)phenyl]-1,3 thiazol-5 yl]-2-pyridyl]propionamide]: 187 to 188 °C. Under `CSc1ccc(-c2nc(-c3cccc(Cl)c3)c(-c3ccnc(NC(=O)C(C)(C)C)c3)s2)cc1` [H 30-12, N-[4 [4 (3 chlorophenyl)-2 [4 (methylthio)phenyl]-1,3 thiazol-5 yl]-2-pyridyl]pivalamide] stands 119 to 120 °C; under `CCc1nc(-c2cccc(C)c2)c(-c2ccnc(NCC3CCCC3)c2)s1` [H 32, N-(cyclopentylmethyl)-4 [2-ethyl-4 (3 methylphenyl)-1,3 thiazol-5 yl]-2 pyridylamine], 67 to 69 °C.

`Cc1cccc(-c2nc(N)sc2-c2ccnc(N3CCOCC3)c2)c1` [H 34-1, [4 (3 methylphenyl)-5 (2-morpholino-4 pyridyl)-1,3 thiazol-2 yl]amine]: the melting point lay within 188 to 189 °C. The same measure for `Cc1cccc(-c2nc(N)sc2-c2ccnc(NC3CCCC3)c2)c1` [H 34-3, [5 (2 cyclopentylamino-4-pyridyl)-4 (3 methylphenyl)-1,3 thiazol-2 yl]amine]: 169 to 170 °C; for `Nc1nc(-c2cccc(Cl)c2)c(-c2ccnc(N3CCCCC3)c2)s1` [H 35-1, [4 (3 chlorophenyl)-5 (2-piperidino-4 pyridyl)-1,3 thiazol-2 yl]amine]: 206 to 208 °C; for `Cc1cccc(-c2nc(-c3ccc(S(C)(=O)=O)cc3)sc2N2C=CC=CC2N2CCCCC2)c1` (stereo not shown) [H 35-2, 4 (3 methylphenyl)-2 (4-methylsulfonylphenyl)-5 (2 piperidino-1 pyridyl)-1,3 thiazole]: 155 to 157 °C. Under `Nc1nc(-c2ccc(F)cc2)c(-c2ccnc(NC3CCCCC3)c2)s1` [H 36-1, [5 (2 cyclohexylamino-4-pyridyl)-4 (4 fluorophenyl)-1,3 thiazol-2 yl]amine] stands 194 to 195 °C; under `CNc1nc(-c2cccc(C)c2)c(-c2ccnc(NC3CCCCC3)c2)s1` [H 36-2, N-methyl-[5 (2-cyclohexylamino-4 pyridyl)-4 (3 methylphenyl)-1,3 thiazol-2-yl]amine], 211 to 212 °C. Compound `CNc1nc(-c2cccc(C)c2)c(-c2ccnc(NC3CCCC3)c2)s1` [H 36-3, N-methyl-[5 (2-cyclopentylamino-4 pyridyl)-4 (3 methylphenyl)-1,3 thiazol-2-yl]amine] had a melting point of 170 to 172 °C. The same measure for `CCc1nc(-c2cccc(C)c2)c(-c2ccnc(NC3CCCCC3)c2)s1` [H 36-4, N-cyclohexyl-4-[2-ethyl-4-(3-methylphenyl)-1,3-thiazol-5-yl]-2-pyridylamine]: 110 to 112 °C; for `Cc1cccc(-c2nc(-c3ccc(S(C)(=O)=O)cc3)sc2-c2ccnc(NC3CCCCC3)c2)c1` [H 36-5, N-cyclohexyl-4-[4-(3-methylphenyl)-2-(4-methylsulfonylphenyl)-1,3-thiazol-5-yl]-2-pyridylamine]: 197 to 199 °C.

For the compound `Cc1cccc(-c2nc(-c3ccc(S(C)(=O)=O)cc3)sc2-c2ccnc(NC3CCCC3)c2)c1` [H 36-7, N-cyclopentyl-4-[4-(3-methylphenyl)-2-(4-methylsulfonylphenyl)-1,3-thiazol-5-yl]-2-pyridylamine], the melting point is 154 to 156 °C. Under `Cc1cccc(-c2nc(-c3ccc(S(C)(=O)=O)cc3)sc2-c2ccnc(N3CCOCC3)c2)c1` [H 36-8, 4 (3 methylphenyl)-2 (4-methylsulfonylphenyl)-5 (2 morpholino-4 pyridyl)-1,3 thiazole] stands 200 to 202 °C; under `CCc1nc(-c2cccc(C)c2)c(-c2ccnc(N3CCOCC3)c2)s1` [H 36-9, 2 ethyl-4 (3-methylphenyl)-5 (2 morpholino-4 pyridyl)-1,3 thiazole], 69 to 71 °C; under `CCc1nc(-c2cccc(Cl)c2)c(-c2ccnc(NC3CCCC3)c2)s1` [H 36-11, 4-[4-(3-chlorophenyl)-2-ethyl-1,3-thiazol-5-yl]-N-cyclopentyl-2-pyridylamine], 110 to 111 °C. Under `Cc1cccc(-c2nc(-c3ccc(S(C)(=O)=O)cc3)sc2-c2ccnc(N(C)C3CCCCC3)c2)c1` [H 37-2, N-cyclohexyl-N-methyl-4-[4 (3 methylphenyl)-2 (4 methylsulfonylphenyl)-1,3 thiazol-5-yl]-2 pyridylamine] stands 173 to 174 °C; under `Cc1cccc(-c2nc(-c3ccc(S(C)(=O)=O)cc3)sc2-c2ccnc(NCC3CCCCC3)c2)c1` [H 37-3, N-cyclohexylmethyl-4 [4-(3 methylphenyl)-2 (4 methylsulfonylphenyl)-1,3 thiazol-5-yl]-2 pyridylamine], 157 to 159 °C; under `Cc1cccc(-c2nc(-c3ccc(S(C)(=O)=O)cc3)sc2-c2ccnc(N3CCCC3)c2)c1` [H 37-4, 4 (3 methylphenyl)-2 (4-methylsulfonylphenyl)-5 [2 (1 pyrrolidinyl)-4 pyridyl]-1,3-thiazole], 199 to 201 °C.
